Structures are written as SMILES. Activity calls are given as the source filed them.

Assay [1] deals with T1, Inhibitor of nuclear factor kappa-B kinase subunit epsilon (Homo sapiens, UniProt Q14164).
T1 sequence (Q14164 whole entry): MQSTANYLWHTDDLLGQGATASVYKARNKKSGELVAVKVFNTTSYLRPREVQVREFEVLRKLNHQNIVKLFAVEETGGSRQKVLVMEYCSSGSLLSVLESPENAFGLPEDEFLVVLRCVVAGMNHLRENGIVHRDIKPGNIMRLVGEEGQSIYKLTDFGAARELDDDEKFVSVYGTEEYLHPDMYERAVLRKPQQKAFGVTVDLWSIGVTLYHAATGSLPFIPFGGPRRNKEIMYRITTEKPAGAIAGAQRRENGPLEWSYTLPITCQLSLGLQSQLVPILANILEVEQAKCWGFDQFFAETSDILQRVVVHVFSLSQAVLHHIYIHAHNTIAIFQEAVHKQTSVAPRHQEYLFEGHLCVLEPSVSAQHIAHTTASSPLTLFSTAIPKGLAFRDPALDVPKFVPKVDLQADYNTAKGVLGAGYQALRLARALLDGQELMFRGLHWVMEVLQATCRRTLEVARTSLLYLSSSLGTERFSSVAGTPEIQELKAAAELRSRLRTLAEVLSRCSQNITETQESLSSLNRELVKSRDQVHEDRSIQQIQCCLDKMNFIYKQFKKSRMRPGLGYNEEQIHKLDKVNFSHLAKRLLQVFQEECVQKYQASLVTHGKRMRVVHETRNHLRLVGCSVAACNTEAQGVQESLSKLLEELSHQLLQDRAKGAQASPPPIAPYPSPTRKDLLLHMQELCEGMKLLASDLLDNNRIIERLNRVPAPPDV

Assay [2] deals with T2, Glycogen phosphorylase, liver form (Homo sapiens, UniProt P06737).
T2 sequence (P06737 whole entry): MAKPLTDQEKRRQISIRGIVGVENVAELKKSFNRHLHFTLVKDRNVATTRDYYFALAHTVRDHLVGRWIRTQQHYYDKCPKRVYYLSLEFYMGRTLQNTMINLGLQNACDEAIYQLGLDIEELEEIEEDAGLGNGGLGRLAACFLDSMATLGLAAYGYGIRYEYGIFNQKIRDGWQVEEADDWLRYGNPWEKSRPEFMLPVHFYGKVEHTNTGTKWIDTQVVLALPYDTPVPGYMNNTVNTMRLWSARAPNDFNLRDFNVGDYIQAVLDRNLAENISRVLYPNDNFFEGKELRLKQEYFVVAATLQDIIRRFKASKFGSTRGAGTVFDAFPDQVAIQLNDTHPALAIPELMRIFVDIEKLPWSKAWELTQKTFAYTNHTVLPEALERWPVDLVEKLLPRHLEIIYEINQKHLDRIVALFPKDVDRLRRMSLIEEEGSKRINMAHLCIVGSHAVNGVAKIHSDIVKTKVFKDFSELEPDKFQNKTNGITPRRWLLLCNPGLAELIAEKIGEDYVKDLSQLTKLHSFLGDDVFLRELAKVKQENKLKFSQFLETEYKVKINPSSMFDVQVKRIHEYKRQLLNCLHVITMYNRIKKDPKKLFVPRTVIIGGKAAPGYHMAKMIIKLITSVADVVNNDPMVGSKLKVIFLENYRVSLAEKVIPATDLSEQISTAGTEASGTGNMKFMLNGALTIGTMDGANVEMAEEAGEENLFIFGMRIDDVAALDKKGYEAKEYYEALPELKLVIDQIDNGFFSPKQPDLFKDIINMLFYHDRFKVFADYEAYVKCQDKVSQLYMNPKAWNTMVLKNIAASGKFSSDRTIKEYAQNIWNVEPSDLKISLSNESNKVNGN
The class given is subcellular, K-562, COLO 205, SK-N-BE(2) and MV-4-11, Cell lysate. As to conditions: read-out: Kd apparent.

The target of assay [3] is T3, Serine/threonine-protein kinase Nek1 (Homo sapiens, UniProt Q96PY6).
T3 sequence (Q96PY6 whole entry): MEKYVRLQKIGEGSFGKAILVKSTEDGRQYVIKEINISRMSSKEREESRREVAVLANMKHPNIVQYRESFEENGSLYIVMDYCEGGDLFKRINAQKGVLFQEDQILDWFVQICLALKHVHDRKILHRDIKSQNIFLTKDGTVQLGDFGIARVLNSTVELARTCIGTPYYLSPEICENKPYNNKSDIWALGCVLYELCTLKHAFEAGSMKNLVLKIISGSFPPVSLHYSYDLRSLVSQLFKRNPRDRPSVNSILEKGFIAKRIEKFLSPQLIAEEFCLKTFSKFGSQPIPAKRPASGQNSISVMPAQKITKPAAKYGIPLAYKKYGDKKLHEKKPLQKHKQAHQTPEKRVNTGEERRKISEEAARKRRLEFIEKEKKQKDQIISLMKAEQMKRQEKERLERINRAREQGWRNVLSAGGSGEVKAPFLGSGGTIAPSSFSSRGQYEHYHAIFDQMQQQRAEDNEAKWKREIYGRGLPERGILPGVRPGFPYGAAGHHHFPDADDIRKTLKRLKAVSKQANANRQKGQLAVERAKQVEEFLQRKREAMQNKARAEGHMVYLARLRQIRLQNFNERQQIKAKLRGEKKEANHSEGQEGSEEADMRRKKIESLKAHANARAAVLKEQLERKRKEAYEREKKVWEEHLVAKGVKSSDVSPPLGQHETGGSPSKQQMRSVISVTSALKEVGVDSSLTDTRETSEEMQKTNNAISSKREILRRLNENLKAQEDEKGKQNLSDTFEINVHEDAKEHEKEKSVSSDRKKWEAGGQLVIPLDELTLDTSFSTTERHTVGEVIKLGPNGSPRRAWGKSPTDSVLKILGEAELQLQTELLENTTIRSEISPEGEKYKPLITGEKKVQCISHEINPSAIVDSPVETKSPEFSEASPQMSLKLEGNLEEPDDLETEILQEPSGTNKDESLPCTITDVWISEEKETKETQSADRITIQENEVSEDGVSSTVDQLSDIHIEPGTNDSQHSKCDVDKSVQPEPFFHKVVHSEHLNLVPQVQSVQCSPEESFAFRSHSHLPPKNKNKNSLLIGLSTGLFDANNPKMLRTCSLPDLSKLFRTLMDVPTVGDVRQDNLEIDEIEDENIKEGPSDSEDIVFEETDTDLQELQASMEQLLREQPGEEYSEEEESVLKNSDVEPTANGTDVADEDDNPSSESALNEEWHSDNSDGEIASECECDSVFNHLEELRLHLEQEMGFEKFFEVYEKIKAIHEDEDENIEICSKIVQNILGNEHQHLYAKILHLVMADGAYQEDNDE
Also: in the data inactive means no Kd found up to 30 µM.

Consider `C[C@@H](Oc1cc(C(=O)Nc2ccc(C(=O)N3CCN(C)CC3)cc2)nnc1N)c1c(Cl)ccc(F)c1Cl`, for which the Kd in assay [1], in assay [2] and in assay [3] was > 30 µM (inactive) throughout.
With `C[C@H]1CNCCCN1S(=O)(=O)c1cccc2cncc(F)c12`, the Kd in assay [1], in assay [2] and in assay [3] was > 30 µM (inactive) each time.
`CC(=O)c1cnc2ccc(-c3cc(Cl)c(O)c(Cl)c3)nc2c1N[C@H]1CC[C@H](CN(C)C)CC1`: the Kd in assay [2] and in assay [3] was > 30 µM (inactive) in each case.
Turning to `CCNC(=O)C#Cc1ccc2c(c1)NC(=O)/C2=C(\Nc1ccc(CN(C)C)cc1)c1ccccc1`, the Kd was 0.408 µM (active) in assay [1], > 30 µM (inactive) in assay [2] and > 30 µM (inactive) in assay [3].
As to `C=CC(=O)N1CCC[C@H](n2c(=O)n(-c3ccc(Oc4ccccc4)cc3)c3c(N)ncnc32)C1`, the Kd in assay [1], in assay [2] and in assay [3] was > 30 µM (inactive) in each case.
For the compound `Cc1nc2cc(-c3nn(C(C)C)c4ncnc(N)c34)ccc2o1`, the Kd in assay [1], in assay [2] and in assay [3] was > 30 µM (inactive) in each case.
Consider `COCc1c(-c2ccc(NC(=O)Nc3cc(C(F)(F)F)ccc3F)c(F)c2)c2c(N)ncnn2c1CN1CCOCC1`, for which the Kd in assay [1], in assay [2] and in assay [3] was > 30 µM (inactive) each time.
On to `Nc1ncnc2c1c(-c1cccc(OCc3ccccc3)c1)cn2[C@H]1C[C@@H](CN2CCC2)C1` [AEW-541], for which the Kd in assay [1], in assay [2] and in assay [3] was > 30 µM (inactive) throughout.
For `COc1cc(Nc2ncc3c(n2)-c2ccc(Cl)cc2C(c2c(F)cccc2OC)=NC3)ccc1C(=O)O` [ALISERTIB], the Kd in assay [2] and in assay [3] was > 30 µM (inactive) each time.
On to `Cc1nc(NC(=O)N2CCC[C@H]2C(N)=O)sc1-c1ccnc(C(C)(C)C(F)(F)F)c1` [ALPELISIB], for which the Kd in assay [1], in assay [2] and in assay [3] was > 30 µM (inactive) each time.
In the case of `Cc1csc(-c2nnc(Nc3ccc(Oc4ncccc4-c4ccnc(N)n4)cc3)c3ccccc23)c1` [AMG-900], the figures for the Kd in assay [1], in assay [2] and in assay [3] were > 30 µM (inactive), > 30 µM (inactive) and 2.38 µM (active), respectively.
Turning to `O=C(Nc1c[nH]nc1-c1nc2cc(CN3CCOCC3)ccc2[nH]1)NC1CC1` [AT-9283], the Kd was 0.215 µM (active) in assay [1], > 30 µM (inactive) in assay [2] and > 30 µM (inactive) in assay [3].
Consider `C=CC(=O)Nc1cc2c(Nc3ccc(F)c(Cl)c3)ncnc2cc1C#CC(C)(C)N1CCN(C)CC1` [AV-412 FREE BASE], for which the Kd in assay [1], in assay [2] and in assay [3] was > 30 µM (inactive) throughout.
For the compound `CNC(=O)c1ccccc1Sc1ccc2c(/C=C/c3ccccn3)n[nH]c2c1` [AXITINIB], in assay [2], the Kd is > 30 µM (inactive).
In the case of `COc1cc([C@@H]2c3cc4c(cc3[C@H](O)[C@H]3COC(=O)[C@@H]23)OCO4)cc(OC)c1OC` [AXL-1717], the Kd in assay [1], in assay [2] and in assay [3] was > 30 µM (inactive) in each case.
Regarding `NC(=O)Nc1cc(-c2cccc(F)c2)sc1C(=O)N[C@H]1CCCNC1` [AZD-7762], the Kd in assay [1], in assay [2] and in assay [3] was > 30 µM (inactive) each time.
Regarding `Cc1cc(C(=O)NOCCO)c(Nc2ccc(I)cc2F)n(C)c1=O` [AZD-8330], the Kd in assay [1], in assay [2] and in assay [3] was > 30 µM (inactive) in each case.
For `Cn1cnc2c(F)c(Nc3ccc(Br)cc3F)c(C(=O)NOCCO)cc21` [BINIMETINIB], the Kd in assay [1], in assay [2] and in assay [3] was > 30 µM (inactive) each time.
For the compound `CC(C)(C)c1nc(-c2cccc(NS(=O)(=O)c3c(F)cccc3F)c2F)c(-c2ccnc(N)n2)s1` [DABRAFENIB], the Kd in assay [1] and in assay [2] was > 30 µM (inactive) in each case.
`Cn1cc(C2=C(c3cn(C4CCN(Cc5ccccn5)CC4)c4ccccc34)C(=O)NC2=O)c2ccccc21` [ENZASTAURIN]: the Kd in assay [2] is > 30 µM (inactive).
For the compound `C[C@@H](Oc1cc(-n2cnc3ccc(CN4CCN(C)CC4)cc32)sc1C(N)=O)c1ccccc1C(F)(F)F` [GSK-461364], the Kd in assay [2] is > 30 µM (inactive).
As to `CCn1cc(-c2ccnc3[nH]c(-c4cccc(CN(C)C)c4)cc23)c(-c2ccc(NC(=O)N(C)C)cc2)n1` [GSK-1070916], the Kd in assay [2] and in assay [3] was > 30 µM (inactive) in each case.
As to `Cc1[nH]c(/C=C2\C(=O)Nc3ccccc32)c(C)c1CCC(=O)O` [ORANTINIB], the Kd in assay [2] and in assay [3] was > 30 µM (inactive) in each case.
Take `NC(=O)c1c(OCc2c(F)cc(Br)cc2F)nsc1NC(=O)NCCCCN1CCCC1` [OSI-632]: the Kd in assay [2] and in assay [3] was > 30 µM (inactive) in each case.
Take `CCOc1cc2ncc(C#N)c(Nc3ccc(F)c(Cl)c3)c2cc1NC(=O)/C=C/CN(C)C` [PELITINIB]: the Kd in assay [1] and in assay [2] was > 30 µM (inactive) each time.
In the case of `CC(=O)NCC(=O)N1[C@@H]2CC[C@H]1c1ccc(Nc3ncc(C(F)(F)F)c(NC4CCC4)n3)cc12` [PF-03814735], the Kd in assay [2] and in assay [3] was > 30 µM (inactive) throughout.
In the case of `O=C(NOCCO)c1cc(CN2OCCCC2=O)c(F)c(F)c1Nc1ccc(I)cc1F` [RO-4987655], the Kd in assay [2] is > 30 µM (inactive).
Still for that read-out and setting: to `N#CC[C@H](C1CCCC1)n1cc(-c2ncnc3[nH]ccc23)cn1` [RUXOLITINIB] belongs > 30 µM (inactive).

These data come from ChEMBL document CHEMBL3991601, “The target landscape of clinical kinase drugs” (Science, 2017).
